Assays:
[1] = system: RN1 gliomaspheres (classical); experiment: AlamarBlue cell viability assay, RN1 gliomaspheres; format: cell-based; settings: 72 h of drug treatment, FIG. 11A
Protocol: FIGS. 11A-11B. Efficacy of SC-38 (referred to as “CMPD1”), compound 1-08 (referred to as “cmpd 13”), compound 1-18 (referred to as “cmpd 7”), and compound 1-38 (referred to as “cmpd 10”) in primary gliomaspheres representing two glioblastoma subtypes. (11A) RN1, classical, and (11B) WK1, mesenchymal. Cellular efficacy (EC50) of test compounds was determined using AlamarBlue cell viability assay after 72 h of drug treatment. Data are mean±SEM from 3 independent experiments performed in triplicate.
U87 and U251 cell lines were obtained from the European Collection of Cell Cultures (ECACC) through CellBank Australia. U87-EGFRvIII cell line was obtained from their lab of origin (Nishikawa et al., 1994, Proc Natl Acad Sci USA 91: 7727-7731) and tested for EGFR amplification and mutation by immunoblotting and flow cytometry. Cells were cultured in DMEM medium (Invitrogen by Life Technologies, Carlsbad, Calif., USA) supplemented with 10% FBS (Sigma-Aldrich) at 37° C. and 5% CO2. Primary gliomaspheres (RN1, classical; WK1, mesenchymal) were derived from glioblastoma specimens (Day et al., 2013, Cancers 5: 357-371; Day et al., 2013, Cancer Cell 23: 238-248), maintained in StemPro NSC serum-free media supplemented with EGF and FGF (all Life Technologies), and grown on matrigel-coated flasks (Pollard et al., 2009, Cell Stem Cell 4: 568-580). […]

U87vIII = experiment: Annexin-FITC/7-AAD apoptosis assay, U87vIII cells; format: cell-based; settings: 48 hours treatment
Protocol: FIGS. 4A-4D. […] U87 (4A-4B) and U87vIII (4C-4D) cells were treated with SC-38 for 48 hours and stained with Annexin-FITC/7-AAD. Apoptotic cells were visualized using the MUSE cell analyzer (Millipore).
FIGS. 6A-6D. […] U87 (A B) (6A-6B) and U87vIII (6C-6D) cells were treated with compound 1-08 for 48 hours and stained with Annexin-FITC/7-AAD. Apoptotic cells were visualized using the MUSE cell analyzer (Millipore). Results are means±SEM from 3 independent experiments. One-way ANOVA followed by Dunnet post-test was used to calculate statistical significance (***P<0.001).
(§1) U87 (FIGS. 4, A-B) and U87vIII (FIG. 4, C-D) cells were treated with SC-38 for 48 hours and stained with Annexin-FITC/7-AAD. Apoptotic cells were visualized using the MUSE cell analyzer (Millipore). Results are means±SEM from 3 independent experiments. One-way ANOVA followed by Dunnet post-test was used to calculate statistical significance (**P<0.01, ***P<0.001)
as §1, with “6,” for “4,”, “compound 1-08” for “SC-38”, “three” for “3”, “(***P<0.001).” for “(**P<0.01, ***P<0.001)”

EPHB1 = target: T1, EPHB1 (Homo sapiens, UniProt P54762); experiment: Kinase profiling (ProQinase 33PanQinase Activity Assay), EPHB1; format: biochemical; settings: read-out: residual activity, EPHB1
T1 sequence (P54762 18-984): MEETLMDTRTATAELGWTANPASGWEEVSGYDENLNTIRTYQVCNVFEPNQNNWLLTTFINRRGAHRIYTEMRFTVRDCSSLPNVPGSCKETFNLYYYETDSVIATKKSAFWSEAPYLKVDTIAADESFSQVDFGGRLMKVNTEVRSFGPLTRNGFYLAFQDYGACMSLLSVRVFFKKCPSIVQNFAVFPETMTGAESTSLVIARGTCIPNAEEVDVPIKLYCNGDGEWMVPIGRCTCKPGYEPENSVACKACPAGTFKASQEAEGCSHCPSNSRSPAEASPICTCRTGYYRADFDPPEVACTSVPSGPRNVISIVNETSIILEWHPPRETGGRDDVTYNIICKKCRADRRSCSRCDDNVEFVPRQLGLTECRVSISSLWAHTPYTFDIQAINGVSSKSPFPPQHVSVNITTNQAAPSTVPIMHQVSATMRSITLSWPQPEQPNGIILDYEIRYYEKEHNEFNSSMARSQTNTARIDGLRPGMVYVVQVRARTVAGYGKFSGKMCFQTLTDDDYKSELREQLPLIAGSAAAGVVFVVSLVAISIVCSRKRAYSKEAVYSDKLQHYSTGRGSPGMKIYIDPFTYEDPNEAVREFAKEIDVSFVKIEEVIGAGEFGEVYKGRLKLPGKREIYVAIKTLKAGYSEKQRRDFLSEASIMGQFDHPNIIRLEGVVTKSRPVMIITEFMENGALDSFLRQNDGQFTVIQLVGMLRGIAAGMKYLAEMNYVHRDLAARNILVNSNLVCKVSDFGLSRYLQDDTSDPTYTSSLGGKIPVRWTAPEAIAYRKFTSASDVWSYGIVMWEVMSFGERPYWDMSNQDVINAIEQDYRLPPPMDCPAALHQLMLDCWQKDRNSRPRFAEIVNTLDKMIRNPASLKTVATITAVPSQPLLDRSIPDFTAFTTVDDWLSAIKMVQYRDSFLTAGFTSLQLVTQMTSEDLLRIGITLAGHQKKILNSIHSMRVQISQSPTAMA
Protocol: (§2) The kinase profiling of compound 1-08 at 10 and 50 μM was performed by ProQinase GmbH (Freiburg, Germany). A radiometric protein kinase assay (^33PanQinase® Activity Assay) and the non-radiometric ADP-Glo™ Assay (Promega, Madison, Wis., USA) were used for measuring kinase activity of 387 protein kinases and 13 lipid kinases, respectively. The results are shown in Table 3 (only the top 10 kinases are listed, and the selectivity score describes the portion of kinases inhibited more than 50% in relation to all tested kinases).

U87 = experiment: Alamar blue cell viability assay, U87 cells; format: cell-based; settings: Homo sapiens, U-87 MG; 72 hours of treatment; mean±SEM, three independent experiments
Protocol: U87 and U251 cell lines were obtained from the European Collection of Cell Cultures (ECACC) through CellBank Australia. U87-EGFRvIII cell line was obtained from their lab of origin (Nishikawa et al., 1994, Proc Natl Acad Sci USA 91: 7727-7731) and tested for EGFR amplification and mutation by immunoblotting and flow cytometry. Cells were cultured in DMEM medium (Invitrogen by Life Technologies, Carlsbad, Calif., USA) supplemented with 10% FBS (Sigma-Aldrich) at 37° C. and 5% CO2. Primary gliomaspheres (RN1, classical; WK1, mesenchymal) were derived from glioblastoma specimens (Day et al., 2013, Cancers 5: 357-371; Day et al., 2013, Cancer Cell 23: 238-248), maintained in StemPro NSC serum-free media supplemented with EGF and FGF (all Life Technologies), and grown on matrigel-coated flasks (Pollard et al., 2009, Cell Stem Cell 4: 568-580).
Cell viability was determined using Alamar blue assay after 72 hours of treatment (Table 2). EC50 values were calculated using non-linear regression on Graph Pad Prism version 5. c Log P values calculated using ChemBioDraw Software. Results are mean±SEM from three independent experiments performed in triplicates.

ALK = ALK (Homo sapiens, UniProt Q9UM73); experiment: Kinase profiling (ProQinase 33PanQinase Activity Assay), ALK; format: biochemical; settings: read-out: residual activity, ALK
Protocol: as §2

Sequence of ALK (Q9UM73 19-1620): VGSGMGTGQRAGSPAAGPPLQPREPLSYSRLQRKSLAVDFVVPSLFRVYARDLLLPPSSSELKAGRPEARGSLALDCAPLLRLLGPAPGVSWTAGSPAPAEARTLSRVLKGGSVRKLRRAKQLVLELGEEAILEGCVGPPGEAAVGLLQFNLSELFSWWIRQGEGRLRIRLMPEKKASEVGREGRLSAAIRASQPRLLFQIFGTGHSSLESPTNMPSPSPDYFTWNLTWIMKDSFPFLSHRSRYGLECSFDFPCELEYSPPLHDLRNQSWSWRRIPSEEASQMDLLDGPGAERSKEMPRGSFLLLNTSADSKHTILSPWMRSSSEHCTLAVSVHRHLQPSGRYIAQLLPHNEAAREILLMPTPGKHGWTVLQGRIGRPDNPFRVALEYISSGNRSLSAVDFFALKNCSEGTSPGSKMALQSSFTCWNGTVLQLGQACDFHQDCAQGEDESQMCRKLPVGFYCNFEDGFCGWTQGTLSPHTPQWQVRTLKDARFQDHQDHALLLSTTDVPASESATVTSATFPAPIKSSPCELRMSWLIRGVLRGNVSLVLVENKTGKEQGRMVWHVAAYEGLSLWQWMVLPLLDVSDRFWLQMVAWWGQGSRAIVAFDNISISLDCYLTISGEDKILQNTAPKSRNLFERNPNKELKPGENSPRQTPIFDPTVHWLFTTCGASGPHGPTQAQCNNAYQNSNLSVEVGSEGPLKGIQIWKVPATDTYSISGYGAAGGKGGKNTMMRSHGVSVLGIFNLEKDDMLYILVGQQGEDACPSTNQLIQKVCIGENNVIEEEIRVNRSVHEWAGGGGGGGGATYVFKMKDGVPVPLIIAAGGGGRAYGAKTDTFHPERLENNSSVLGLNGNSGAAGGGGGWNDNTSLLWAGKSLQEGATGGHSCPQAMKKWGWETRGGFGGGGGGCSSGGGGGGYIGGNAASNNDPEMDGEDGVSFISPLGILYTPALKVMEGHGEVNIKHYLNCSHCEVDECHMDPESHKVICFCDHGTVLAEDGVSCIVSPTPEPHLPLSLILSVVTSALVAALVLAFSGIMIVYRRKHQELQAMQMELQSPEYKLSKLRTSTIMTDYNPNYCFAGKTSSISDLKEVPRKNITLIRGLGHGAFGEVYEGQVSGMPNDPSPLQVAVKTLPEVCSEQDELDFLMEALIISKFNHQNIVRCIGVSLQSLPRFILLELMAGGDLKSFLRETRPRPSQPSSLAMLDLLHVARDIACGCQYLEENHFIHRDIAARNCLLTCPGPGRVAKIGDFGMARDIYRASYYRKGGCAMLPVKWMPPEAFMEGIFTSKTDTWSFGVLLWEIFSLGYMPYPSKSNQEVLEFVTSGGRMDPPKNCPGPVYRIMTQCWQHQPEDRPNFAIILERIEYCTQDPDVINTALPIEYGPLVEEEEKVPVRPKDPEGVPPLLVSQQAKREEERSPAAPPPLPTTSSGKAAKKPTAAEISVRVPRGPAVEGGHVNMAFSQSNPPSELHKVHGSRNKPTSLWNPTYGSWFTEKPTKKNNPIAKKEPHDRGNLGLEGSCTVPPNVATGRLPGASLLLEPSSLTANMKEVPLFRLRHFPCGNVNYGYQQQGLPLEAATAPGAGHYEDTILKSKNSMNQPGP

- remaining activity at 10 µM (EPHB1; 10 μM compound): 57%
- remaining activity at 50 µM (EPHB1; 50 μM compound): 20%
- EC50 (U87): 0.65 ± 0.3 µM
- remaining activity at 10 µM (ALK; 10 μM compound): 76%
- remaining activity at 50 µM (ALK; 50 μM compound): 21%
SMILES: O=C(CCCc1ccc(-c2cnc3ccccc3c2)cc1)Nc1ccc(O)cc1 [Compound 1-08, N-(4-hydroxyphenyl)-4-(4-(quinolin-3-yl)phenyl)butanamide]
- EC50 [1]: 0.54 µM
- apoptosis, U87vIII (U87vIII): induced apoptosis

Source: patent US10745355B2, “Anti-cancer compounds” (THE UNIVERSITY OF SYDNEY, priority 2015, dated 2020)
